The target of one assay is T1, mCRY2-PHR (Mus musculus, UniProt Q9R194).
T1 sequence (Q9R194 1-512): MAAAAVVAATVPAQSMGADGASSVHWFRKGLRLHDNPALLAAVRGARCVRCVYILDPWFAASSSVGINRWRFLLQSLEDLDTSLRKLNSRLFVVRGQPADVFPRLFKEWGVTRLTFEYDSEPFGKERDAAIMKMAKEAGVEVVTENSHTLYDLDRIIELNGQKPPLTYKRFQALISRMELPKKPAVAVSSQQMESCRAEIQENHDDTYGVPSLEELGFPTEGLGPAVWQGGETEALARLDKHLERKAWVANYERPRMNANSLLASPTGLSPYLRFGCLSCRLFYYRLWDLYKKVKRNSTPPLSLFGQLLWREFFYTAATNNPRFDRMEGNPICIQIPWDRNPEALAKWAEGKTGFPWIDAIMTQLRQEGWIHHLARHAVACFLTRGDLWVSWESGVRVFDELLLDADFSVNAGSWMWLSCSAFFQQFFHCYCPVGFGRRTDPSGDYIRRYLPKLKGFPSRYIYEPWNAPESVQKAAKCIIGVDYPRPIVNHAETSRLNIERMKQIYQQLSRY
The assay can be described thus: quenching of FAD fluorescence. The assay is classed as binding.

In another assay the target is T2, GST-tagged mCRY2 (1-544) (mouse, UniProt Q9R194 1-544).
T2 sequence: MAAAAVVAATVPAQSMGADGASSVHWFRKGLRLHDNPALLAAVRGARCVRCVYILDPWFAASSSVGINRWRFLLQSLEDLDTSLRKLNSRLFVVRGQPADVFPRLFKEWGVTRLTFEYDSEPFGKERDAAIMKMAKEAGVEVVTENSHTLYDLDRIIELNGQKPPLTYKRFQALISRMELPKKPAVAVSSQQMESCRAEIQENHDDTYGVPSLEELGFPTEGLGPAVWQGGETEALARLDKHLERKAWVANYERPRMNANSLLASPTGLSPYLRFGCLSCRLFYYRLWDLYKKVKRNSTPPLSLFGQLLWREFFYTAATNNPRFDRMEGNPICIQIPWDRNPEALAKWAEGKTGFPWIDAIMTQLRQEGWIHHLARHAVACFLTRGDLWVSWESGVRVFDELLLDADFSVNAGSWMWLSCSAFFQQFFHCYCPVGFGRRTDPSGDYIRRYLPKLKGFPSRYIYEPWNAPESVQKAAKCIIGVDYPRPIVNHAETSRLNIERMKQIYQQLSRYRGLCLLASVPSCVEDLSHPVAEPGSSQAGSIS
The experiment in a line: pull-down.

This is an account of results in paper PMC3618506 (Nature, 2013).

Usually Kd stands for the constant that tells how readily two partners part at equilibrium. A low value points to tighter binding.

On mCRY2-PHR, `Cc1cc2nc3c(=O)[nH]c(=O)nc-3n(C[C@H](O)[C@H](O)[C@H](O)COP(=O)(O)OP(=O)(O)OC[C@H]3O[C@@H](n4cnc5c(N)ncnc54)[C@H](O)[C@@H]3O)c2cc1C` [FAD] yielded a Kd of around 40 µM.

B1: Strep-tagged full-length Fbxl3 (natural protein)
chain: MKRGGRDSDRNSSEEGTAEKSKKLRTTNEHSQTCDWGNLLQDIILQVFKYLPLLDRAHASQVCRNWNQVFHMPDLWRCFEFELNQPATSYLKATHPELIKQIIKRHSNHLQYVSFKVDSSKESAEAACDILSQLVNCSLKTLGLISTARPSFMDLPKSHFISALTVVFVNSKSLSSLKIDDTPVDDPSLKVLVANNSDTLKLLKMSSCPHVSPAGILCVADQCHGLRELALNYHLLSDELLLALSSEKHVRLEHLRIDVVSENPGQTHFHTIQKSSWDAFIRHSPKVNLVMYFFLYEEEFDPFFRYEIPATHLYFGRSVSKDVLGRVGMTCPRLVELVVCANGLRPLDEELIRIAERCKNLSAIGLGECEVSCSAFVEFVKMCGGRLSQLSIMEEVLIPDQKYSLEQIHWEVSKHLGRVWFPDMMPTW
On to B1, for which the binding result with GST-tagged mCRY2 (1-544) was “binds”.
